Source: US20100267561A1, “HERBICIDAL PYRIDAZINONE DERIVATIVES” (priority 2007, published 2010)

What was measured:
Assay in all cases: Test E pre-/postemergence plant response
Format in all cases: in vivo
[1] = test system: common purslane (Portulaca oleracea); conditions: scale 0 to 100
How it was run: (§1)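 Pre/post herbicide screen; formulation: non-phytotoxic solvent mix + surfactant. Post timing 1–4 leaves (2–18 cm ht). Greenhouse 14–21 d; visual 0 (none) to 100 (complete control) vs controls.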

[2] = test system: purple nutsedge (Cyperus rotundus); conditions: scale 0 to 100
How it was run: as §1

[3] = test system: dallisgrass (Paspalum dilatatum); conditions: scale 0 to 100
How it was run: as §1

[4] = test system: green foxtail (Setaria viridis); conditions: scale 0 to 100
How it was run: as §1

[5] = test system: common groundsel (Senecio vulgaris); conditions: Postemergence, scale 0 to 100
How it was run: as §1

[6] = test system: quackgrass (Elytrigia repens); conditions: scale 0 to 100
How it was run: as §1

[7] = test system: surinam grass (Brachiaria decumbens); conditions: scale 0 to 100
How it was run: as §1

[8] = test system: large crabgrass (Digitaria sanguinalis); conditions: scale 0 to 100
How it was run: as §1

[9] = test system: common mallow (Malva sylvestris); conditions: scale 0 to 100
How it was run: as §1

[10] = test system: southern (S.) sandbur (Cenchrus echinatus); conditions: scale 0 to 100
How it was run: as §1

[11] = test system: johnsongrass (Sorghum halepense); conditions: scale 0 to 100
How it was run: as §1

[12] = test system: broadleaf signalgrass (Brachiaria platyphylla); conditions: scale 0 to 100
How it was run: as §1

COC(=O)Oc1cnn(C)c(=O)c1-n1nc(-c2ccc(Cl)cc2)cc1C [Compound 33]
Plant response rating, Purslane ([1]; 16 g ai/ha, Preemergence): 0
Plant response rating, Purslane ([1]; 31 g ai/ha, Preemergence): 0
Plant response rating, Purslane ([1]; 62 g ai/ha, Preemergence): 0
Plant response rating, Purslane ([1]; Postemergence, 8 g ai/ha): 0
Plant response rating, Purslane ([1]; Postemergence, 16 g ai/ha): 0
Plant response rating, Purslane ([1]; Postemergence, 31 g ai/ha): 0
Plant response rating, Purslane ([1]; Postemergence, 62 g ai/ha): 0
Plant response rating, Nutsedge, Purple ([2]; 16 g ai/ha, Preemergence): 0
Plant response rating, Nutsedge, Purple ([2]; 31 g ai/ha, Preemergence): 0
Plant response rating, Nutsedge, Purple ([2]; 62 g ai/ha, Preemergence): 0
Plant response rating, Nutsedge, Purple ([2]; Postemergence, 8 g ai/ha): 0
Plant response rating, Nutsedge, Purple ([2]; Postemergence, 16 g ai/ha): 0
Plant response rating, Nutsedge, Purple ([2]; Postemergence, 31 g ai/ha): 0
Plant response rating, Nutsedge, Purple ([2]; Postemergence, 62 g ai/ha): 0
Plant response rating, Dallisgrass ([3]; 8 g ai/ha, Preemergence): 25
Plant response rating, Dallisgrass ([3]; 16 g ai/ha, Preemergence): 50
Plant response rating, Dallisgrass ([3]; 31 g ai/ha, Preemergence): 80
Plant response rating, Dallisgrass ([3]; 62 g ai/ha, Preemergence): 100
Plant response rating, Dallisgrass ([3]; Postemergence, 8 g ai/ha): 35
Plant response rating, Dallisgrass ([3]; Postemergence, 16 g ai/ha): 35
Plant response rating, Dallisgrass ([3]; Postemergence, 31 g ai/ha): 65
Plant response rating, Dallisgrass ([3]; Postemergence, 62 g ai/ha): 65
Plant response rating, Foxtail, Green ([4]; 8 g ai/ha, Preemergence): 40
Plant response rating, Foxtail, Green ([4]; 16 g ai/ha, Preemergence): 65
Plant response rating, Foxtail, Green ([4]; 31 g ai/ha, Preemergence): 100
Plant response rating, Foxtail, Green ([4]; 62 g ai/ha, Preemergence): 100
Plant response rating, Foxtail, Green ([4]; Postemergence, 8 g ai/ha): 60
Plant response rating, Foxtail, Green ([4]; Postemergence, 16 g ai/ha): 65
Plant response rating, Foxtail, Green ([4]; Postemergence, 31 g ai/ha): 75
Plant response rating, Foxtail, Green ([4]; Postemergence, 62 g ai/ha): 95
Plant response rating, Groundsel ([5]; 8 g ai/ha): 0
Plant response rating, Groundsel ([5]; 16 g ai/ha): 0
Plant response rating, Groundsel ([5]; 31 g ai/ha): 0
Plant response rating, Groundsel ([5]; 62 g ai/ha): 0
Plant response rating, Quackgrass ([6]; 16 g ai/ha, Preemergence): 20
Plant response rating, Quackgrass ([6]; 31 g ai/ha, Preemergence): 20
Plant response rating, Quackgrass ([6]; 62 g ai/ha, Preemergence): 60
Plant response rating, Quackgrass ([6]; Postemergence, 8 g ai/ha): 0
Plant response rating, Quackgrass ([6]; Postemergence, 16 g ai/ha): 30
Plant response rating, Quackgrass ([6]; Postemergence, 31 g ai/ha): 60
Plant response rating, Quackgrass ([6]; Postemergence, 62 g ai/ha): 70
Plant response rating, Surinam Grass ([7]; 16 g ai/ha, Preemergence): 98
Plant response rating, Surinam Grass ([7]; 31 g ai/ha, Preemergence): 98
Plant response rating, Surinam Grass ([7]; 62 g ai/ha, Preemergence): 100
Plant response rating, Surinam Grass ([7]; Postemergence, 8 g ai/ha): 75
Plant response rating, Surinam Grass ([7]; Postemergence, 16 g ai/ha): 75
Plant response rating, Surinam Grass ([7]; Postemergence, 31 g ai/ha): 100
Plant response rating, Surinam Grass ([7]; Postemergence, 62 g ai/ha): 100
Plant response rating, Crabgrass, Large ([8]; 8 g ai/ha, Preemergence): 40
Plant response rating, Crabgrass, Large ([8]; 16 g ai/ha, Preemergence): 75
Plant response rating, Crabgrass, Large ([8]; 31 g ai/ha, Preemergence): 100
Plant response rating, Crabgrass, Large ([8]; 62 g ai/ha, Preemergence): 100
Plant response rating, Crabgrass, Large ([8]; Postemergence, 8 g ai/ha): 70
Plant response rating, Crabgrass, Large ([8]; Postemergence, 16 g ai/ha): 75
Plant response rating, Crabgrass, Large ([8]; Postemergence, 31 g ai/ha): 90
Plant response rating, Crabgrass, Large ([8]; Postemergence, 62 g ai/ha): 95
Plant response rating, Mallow ([9]; 16 g ai/ha, Preemergence): 0
Plant response rating, Mallow ([9]; 31 g ai/ha, Preemergence): 0
Plant response rating, Mallow ([9]; 62 g ai/ha, Preemergence): 0
Plant response rating, Mallow ([9]; Postemergence, 8 g ai/ha): 0
Plant response rating, Mallow ([9]; Postemergence, 16 g ai/ha): 0
Plant response rating, Mallow ([9]; Postemergence, 31 g ai/ha): 0
Plant response rating, Mallow ([9]; Postemergence, 62 g ai/ha): 0
Plant response rating, Sandbur, S. ([10]; 16 g ai/ha, Preemergence): 90
Plant response rating, Sandbur, S. ([10]; 31 g ai/ha, Preemergence): 90
Plant response rating, Sandbur, S. ([10]; 62 g ai/ha, Preemergence): 100
Plant response rating, Sandbur, S. ([10]; Postemergence, 8 g ai/ha): 65
Plant response rating, Sandbur, S. ([10]; Postemergence, 16 g ai/ha): 75
Plant response rating, Sandbur, S. ([10]; Postemergence, 31 g ai/ha): 80
Plant response rating, Sandbur, S. ([10]; Postemergence, 62 g ai/ha): 90
Plant response rating, Johnsongrass ([11]; 16 g ai/ha, Preemergence): 75
Plant response rating, Johnsongrass ([11]; 31 g ai/ha, Preemergence): 85
Plant response rating, Johnsongrass ([11]; 62 g ai/ha, Preemergence): 98
Plant response rating, Johnsongrass ([11]; Postemergence, 8 g ai/ha): 50
Plant response rating, Johnsongrass ([11]; Postemergence, 16 g ai/ha): 75
Plant response rating, Johnsongrass ([11]; Postemergence, 31 g ai/ha): 98
Plant response rating, Johnsongrass ([11]; Postemergence, 62 g ai/ha): 98
Plant response rating, Signalgrass ([12]; 16 g ai/ha, Preemergence): 75
Plant response rating, Signalgrass ([12]; 31 g ai/ha, Preemergence): 98
Plant response rating, Signalgrass ([12]; 62 g ai/ha, Preemergence): 100
Plant response rating, Signalgrass ([12]; Postemergence, 8 g ai/ha): 75
Plant response rating, Signalgrass ([12]; Postemergence, 16 g ai/ha): 75
Plant response rating, Signalgrass ([12]; Postemergence, 31 g ai/ha): 95
Plant response rating, Signalgrass ([12]; Postemergence, 62 g ai/ha): 100
